Our source for the inhibition, fold change (FC) and Ratio values is ChEMBL document CHEMBL3612058, “Synthesis and biological evaluation of a new series of 2-amino-3-aroyl thiophene derivatives as agonist allosteric modulators of the A1 adenosine receptor. A position-dependent effect study” (Eur J Med Chem, 2015).

Bounds are passed on as bounds.

Test [1] is described as follows: Displacement of [3H]-ZM241385 from human adenosine A2 receptor expressed in CHO cells at 10 uM after 120 mins by scintillation counting. The class given is cell-based. Background: Loss of bound radioactivity is the signal in a displacement assay; it reports binding, not function.
Test [2] has as its target T1, Adenosine receptor A1 (Homo sapiens) (UniProt P30542).
T1 sequence (whole entry): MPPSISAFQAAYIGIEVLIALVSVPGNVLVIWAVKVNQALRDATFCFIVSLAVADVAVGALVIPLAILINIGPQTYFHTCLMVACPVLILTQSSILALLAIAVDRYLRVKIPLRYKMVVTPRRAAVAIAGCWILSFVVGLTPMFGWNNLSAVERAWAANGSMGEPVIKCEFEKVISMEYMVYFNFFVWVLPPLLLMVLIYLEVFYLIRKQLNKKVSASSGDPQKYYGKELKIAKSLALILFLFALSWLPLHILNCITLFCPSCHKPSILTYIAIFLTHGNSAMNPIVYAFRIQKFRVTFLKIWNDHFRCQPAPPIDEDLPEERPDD
The test can be described thus: Positive allosteric enhancement of human cloned adenosine A1 receptor expressed in CHO cells assessed as inhibition of forskolin-induced cAMP accumulation at 100 nM using [3H]-cAMP by scintillation counting relative to control in presence of 1 pM of CCPA. The class given is functional, cell-based. On the technique in general: Cyclic AMP is a second messenger, typically raised through Gs and lowered through Gi signalling.

Test [3] has as its target T1, Adenosine receptor A1 (Homo sapiens). The test can be described thus: Positive allosteric enhancement of human cloned adenosine A1 receptor expressed in CHO cells assessed as inhibition of forskolin-induced cAMP accumulation at 10 uM using [3H]-cAMP by scintillation counting relative to control. The class given is functional, cell-based.
Test [4] shares this target. The test can be described thus: Binding affinity to human adenosine A1 receptor expressed in CHO cells assessed as fold Bmax shift of [3H]-CCPA at 10 uM after 90 mins by [3H]-CCPA binding assay relative to control. The class given is cell-based.
The target is the same in test [5]. Description: Displacement of [3H]DPCPX from human adenosine A1 receptor expressed in CHO cells at 10 uM after 120 mins by scintillation counting. The class given is cell-based.
The target is the same in test [6]. Description: Ratio of PD81723 to compound for positive allosteric enhancement of human cloned adenosine A1 receptor expressed in CHO cells assessed as inhibition of forskolin-induced cAMP accumulation at 10 uM using [3H]-cAMP by scintillation counting. The class given is functional, cell-based.
Test [7] shares this target. Description: Binding affinity to human adenosine A1 receptor expressed in CHO cells assessed as fold Ki shift of CCPA at 10 uM after 90 mins by [3H]-CCPA displacement assay relative to control. The class given is cell-based.
The target in test [8] is T2, Adenosine receptor A3 (Homo sapiens) (UniProt P0DMS8).
T2 sequence (whole entry): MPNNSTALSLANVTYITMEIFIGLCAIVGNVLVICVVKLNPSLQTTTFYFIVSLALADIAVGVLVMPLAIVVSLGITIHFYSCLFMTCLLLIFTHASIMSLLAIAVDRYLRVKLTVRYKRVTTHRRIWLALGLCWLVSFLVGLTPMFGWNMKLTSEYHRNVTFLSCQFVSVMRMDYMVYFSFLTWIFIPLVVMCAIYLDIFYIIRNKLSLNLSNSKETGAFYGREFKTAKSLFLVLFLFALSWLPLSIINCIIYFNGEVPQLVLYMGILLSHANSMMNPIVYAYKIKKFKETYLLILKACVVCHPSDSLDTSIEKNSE
Description: Displacement of [3H]-MRE-3008-F20 from human adenosine A3 receptor expressed in CHO cells at 10 uM after 120 mins by scintillation counting. The class given is cell-based.

For `Nc1sc(-c2ccc(F)cc2)c(Cc2ccc(Cl)cc2)c1C(=O)c1ccc(Cl)cc1`, the inhibition in test [1] is < 10%; in test [2] it was 55%; in test [3] it was 53%; in test [5], < 10%; in test [8] it was < 10%. Further, the fold change (FC) in test [4] amounted to 5.3; in test [7] it was 4.1. Further, the Ratio in test [6] was 3.
For the molecule `CCOc1ccc(Cc2c(-c3ccccc3)sc(N)c2C(=O)c2ccc(Cl)cc2)cc1`, the inhibition in test [1] is < 10%; in test [2], 69%; in test [3] it was 68%; in test [5] it was < 10%; in test [8] it was < 10%. The fold change (FC) in test [4] was determined as 9.1; in test [7], 8. Besides, the Ratio in test [6] was 3.
On to `Nc1sc(-c2ccc(F)cc2)c(Cc2ccc(F)cc2)c1C(=O)c1ccc(Cl)cc1`, for which the inhibition was < 10% in test [1]; 41% in test [2]; 45% in test [3]; < 10% in test [5]; < 10% in test [8]. Besides, the fold change (FC) in test [4] amounted to 4.8; in test [7] it was 3.7. For the same molecule, the Ratio in test [6] was 3.
Regarding `COc1cccc(Cc2c(-c3ccccc3)sc(N)c2C(=O)c2ccc(Cl)cc2)c1`, the inhibition was < 10% in test [1]; 63% in test [2]; 66% in test [3]; < 10% in test [5]; < 10% in test [8]. Moreover, the fold change (FC) in test [4] came out at 7.3; in test [7], 6.9. Moreover, the Ratio in test [6] stood at 3.
For `Nc1sc(-c2ccccc2)c(Cc2ccc(C(F)(F)F)cc2)c1C(=O)c1ccc(Cl)cc1`, the inhibition in test [1] is < 10%; in test [2] it was 66%; in test [3], 69%; in test [5], < 10%; in test [8], < 10%. For the same molecule, the values for the fold change (FC) in test [4] and in test [7] were 9.1 and 8.9, respectively. The Ratio in test [6] came out at 3.
With `Nc1sc(-c2ccccc2)c(Cc2ccc(F)cc2)c1C(=O)c1ccc(Cl)cc1`, the inhibition in test [1] is < 10%; in test [2], 57%; in test [3] it was 58%; in test [5] it was < 10%; in test [8], < 10%. The fold change (FC) in test [4] was 6.3; in test [7] it was 5.4. Besides, in test [6], the Ratio amounted to 3.
For the molecule `COc1ccc(Cc2c(-c3ccc(OC)cc3)sc(N)c2C(=O)c2ccc(Cl)cc2)cc1`, the inhibition was < 10% in test [1]; 50% in test [2]; 52% in test [3]; < 10% in test [5]; < 10% in test [8]. Moreover, the fold change (FC) was 5.1 in test [4] and 4.6 in test [7]. Besides, in test [6], the Ratio was determined as 3.
`COc1ccc(Cc2sc(N)c(C(=O)c3ccc(Cl)cc3)c2-c2ccccc2)cc1C`: the inhibition is < 10% in test [1]; 30% in test [2]; 31% in test [3]; < 10% in test [5]; < 10% in test [8]. Besides, the fold change (FC) in test [4] worked out at 2.7; in test [7], 2.4.
With `Nc1sc(Cc2ccc(OC(F)(F)F)cc2)c(-c2ccccc2)c1C(=O)c1ccc(Cl)cc1`, the inhibition in test [1] is < 10%; in test [2] it was 25%; in test [3] it was 24%; in test [5], < 10%; in test [8] it was < 10%. Moreover, the fold change (FC) in test [4] and in test [7] was 1.8 in each case.
With `COc1cccc(Cc2sc(N)c(C(=O)c3ccc(Cl)cc3)c2-c2ccccc2)c1`, the inhibition in test [1] is < 10%; in test [2], 31%; in test [3], 32%; in test [5] it was < 10%; in test [8], < 10%. Further, the fold change (FC) turned out to be 2.6 in test [4] and 1.9 in test [7].
For the molecule `CSc1ccc(Cc2c(-c3ccc(F)cc3)sc(N)c2C(=O)c2ccc(Cl)cc2)cc1`, the inhibition was < 10% in test [1]; 55% in test [2]; 52% in test [3]; < 10% in test [5]; < 10% in test [8]. Moreover, the fold change (FC) in test [4] worked out at 5.3; in test [7], 5.2. Moreover, in test [6], the Ratio is 3.
With `Nc1sc(Cc2ccc(C(F)(F)F)cc2)c(-c2ccccc2)c1C(=O)c1ccc(Cl)cc1`, the inhibition was < 10% in test [1]; 24% in test [2]; 25% in test [3]; < 10% in test [5]; < 10% in test [8]. For the same molecule, the fold change (FC) was found to be 1.8 in test [4] and 1.6 in test [7].
On to `COc1ccc(Cc2c(-c3ccc(F)cc3)sc(N)c2C(=O)c2ccc(Cl)cc2)cc1`, for which the inhibition in test [1] is < 10%; in test [2], 59%; in test [3], 58%; in test [5] it was < 10%; in test [8] it was < 10%. For the same molecule, the results for the fold change (FC) in test [4] and in test [7] were 6.3 and 5.4, respectively. For the same molecule, in test [6], the Ratio worked out at 3.
As for `COc1cc(Cc2c(-c3ccccc3)sc(N)c2C(=O)c2ccc(Cl)cc2)cc(OC)c1OC`, the inhibition in test [1] was < 10%; in test [2] it was 43%; in test [3], 47%; in test [5], < 10%; in test [8] it was < 10%. The fold change (FC) in test [4] amounted to 4.3; in test [7], 3.8. Moreover, the Ratio in test [6] was 3.
`COc1ccc(Cc2sc(N)c(C(=O)c3ccc(Cl)cc3)c2-c2ccccc2)cc1`: the inhibition was < 10% in test [1]; 36% in test [2]; 35% in test [3]; < 10% in test [5]; < 10% in test [8]. Also, the figures for the fold change (FC) in test [4] and in test [7] were 2.8 and 2, respectively.
Consider `CC(C)Oc1ccc(Cc2sc(N)c(C(=O)c3ccc(Cl)cc3)c2-c2ccccc2)cc1`, for which the inhibition in test [1] is < 10%; in test [2], 26%; in test [3] it was 26%; in test [5] it was < 10%; in test [8], < 10%. The fold change (FC) in test [4] was 1.8; in test [7], 2.
On to `Nc1sc(Cc2ccccc2)c(-c2ccccc2)c1C(=O)c1ccc(Cl)cc1`, for which the inhibition in test [1] is < 10%; in test [2], 35%; in test [3] it was 34%; in test [5], < 10%; in test [8], < 10%. Moreover, the fold change (FC) in test [4] was 2.6; in test [7], 1.9.
On to `CC(C)(C)Cc1c(-c2ccc(Cl)cc2)sc(N)c1C(=O)c1ccc(Cl)cc1`, for which the fold change (FC) in test [4] stood at 5.8; in test [7] it was 4.
For `CCOc1ccc(Cc2sc(N)c(C(=O)c3ccc(Cl)cc3)c2-c2ccccc2)cc1`, the inhibition in test [1] is < 10%; in test [2], 21%; in test [3], 22%; in test [5], < 10%; in test [8], < 10%. Further, the fold change (FC) in test [4] and in test [7] was 1.5 in each case.
For `Nc1sc(-c2ccc(Cl)cc2)c(CN2CCN(c3ccc(Cl)cc3)CC2)c1C(=O)c1ccc(Cl)cc1`, the fold change (FC) in test [4] is 11.4; in test [7], 8.7.
On to `Nc1sc(-c2ccccc2)c(Cc2cccc3ccccc23)c1C(=O)c1ccc(Cl)cc1`, for which the inhibition in test [1] was < 10%; in test [2], 58%; in test [3], 57%; in test [5], < 10%; in test [8], < 10%. Besides, the values for the fold change (FC) in test [4] and in test [7] were 6.1 and 4.3, respectively.
As for `Nc1sc(Cc2cccc3ccccc23)c(-c2ccccc2)c1C(=O)c1ccc(Cl)cc1`, the inhibition is < 10% in test [1]; 22% in test [2]; 21% in test [3]; < 10% in test [5]; < 10% in test [8]. The fold change (FC) turned out to be 1.5 in test [4] and 1.4 in test [7].

For orientation: inhibition means the share of the control response that was lost under treatment.
